One test concerns LTCCs. As to the kind of experiment: Confocal analysis of co-localization with LTCCs in isolated adult cardiomyocytes. In kind it is cell-based. An excerpt: (§1) a) Western blotting analysis of Cavα1.2 and GAPDH protein levels of total protein lysates; b) Intracellular Ca^2+fluxes; (c) Molecular modeling and docking of a peptide (SEQ ID NO:2, dark grey) to TID region (SEQ ID NO:10, light grey) of Cavβ2.; (d) Western blotting analysis of Cavα1.2 and GAPDH protein levels of total protein lysates; (e) Confocal analyses of adult cardiomyocytes treated with TAT-MP- and TAT-scramble-and stained with di 8-ANEPPS dye. MP=SEQ ID NO:3, scramble=SEQ ID NO:11. (f) Western blotting analysis of Cavα1.2 and GAPDH protein levels of total protein lysates from HEK293 cells treated with increasing doses of MP; (g) Ca^2+ current measurements in tSA-201 cells previously transfected. For Western blotting analyses, HEK293 or tSA-201 cells transfected or treated as indicated. Protein levels were normalized to GAPDH. (n=4). Data are shown as the means±SEM; *, P<0.05, **, P<0.005; ***, P<0.001.
(§2) To facilitate the intracellular uptake, a cell-penetrating peptide (CPP) was conjugated to the MP (SEQ ID NO: 3). […] Thus, the trans-activating transcriptional activator (TAT) from Human Immunodeficiency Virus 1 (HIV-1) was used. […] TAT-MP=SEQ ID NO: 3; TAT-scramble=scramble=SEQ ID NO:11.

The test system of the next test is pdk1 knockout mice. Put plainly: Genetic mouse model of heart failure (inducible cardiac specific PDK1 knockout). In kind it is in vivo. As to conditions: for cardiac (left ventricular) function, echocardiography: PDK1 knockout mice after tamoxifen, cell penetrating peptides. Here is the method:
(a, top) Design of study. Echo, echocardiography. (a, bottom) Fractional shortening (%) as determined by echocardiography in pdk1 knockout mice treated with mimetic peptide (TAT-MP) or scramble (TAT-scramble). (b) Western blotting analysis of Cavα1.2 and GAPDH protein levels of total protein lysates from left ventricular homogenates. Protein levels were normalized to GAPDH. (n=4) MP=SEQ ID NO:3, scramble=SEQ ID NO:11. Tamoxifen (TAM) and peptide was injected daily as indicated. Protein levels were normalized to GAPDH.
To explore the in vivo therapeutic potential, MP was used in an inducible and cardiac specific knockout of the phosphoinositide-dependent kinase 1 (PDK1), the upstream activator of all three Akt isoforms. […] We then treated the mice with either cell penetrating MP or scramble peptides and followed the phenotype for the following days. […] MP=SEQ ID NO: 3; TAT-scramble=scramble=SEQ ID NO:11.

The subject of test [1] is Cavα1.2. As to the kind of experiment: Western blot of Cavα1.2 protein levels in iPSC-CMs subjected to an Akt inhibitor. As to conditions: iPSC-CMs co-treated with Akt inhibitor. In kind it is cell-based, human. An excerpt:
(a) Western blotting analysis of Cavα1.2 and GAPDH protein levels of total protein lysates from cardiomyocytes (CMs) differentiated from induced pluripotent stem cells (iPSCs) and previously derived from skin fibroblasts of healthy individuals. (n=4) Cells were untreated or treated with an Akt-inhibitor. MP=SEQ ID NO:3, scramble=SEQ ID NO:11.
(§3) Based on this, we next performed functional analyses and examined the iPSC-CM beating clusters (BCs) for Ca^2+ handling properties. […] On the other hand, no effects were observed when BCs were co-treated with scramble.

A further test deals with T1, LTCC (Homo sapiens, UniProt Q08289).
T1 construct: expressed in transfected cells; host or cells: tSA-201
T1 sequence (Q08289 whole entry): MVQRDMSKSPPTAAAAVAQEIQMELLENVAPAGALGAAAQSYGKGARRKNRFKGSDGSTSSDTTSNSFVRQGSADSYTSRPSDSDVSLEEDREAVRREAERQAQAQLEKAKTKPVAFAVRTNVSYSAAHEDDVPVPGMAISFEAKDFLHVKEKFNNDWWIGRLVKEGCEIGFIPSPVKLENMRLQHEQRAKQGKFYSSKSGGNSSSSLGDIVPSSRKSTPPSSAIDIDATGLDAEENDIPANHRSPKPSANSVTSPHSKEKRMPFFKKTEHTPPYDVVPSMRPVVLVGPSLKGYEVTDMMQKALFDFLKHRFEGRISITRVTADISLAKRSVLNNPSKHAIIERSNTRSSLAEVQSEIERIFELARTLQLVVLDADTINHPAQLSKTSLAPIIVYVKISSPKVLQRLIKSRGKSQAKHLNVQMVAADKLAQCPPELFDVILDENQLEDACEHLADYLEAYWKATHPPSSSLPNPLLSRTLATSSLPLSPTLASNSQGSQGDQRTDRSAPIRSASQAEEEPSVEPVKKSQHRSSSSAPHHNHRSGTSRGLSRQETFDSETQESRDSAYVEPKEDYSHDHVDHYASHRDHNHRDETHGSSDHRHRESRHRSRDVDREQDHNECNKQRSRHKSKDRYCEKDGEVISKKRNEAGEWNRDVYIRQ
T1 sequence (Q13936 whole entry partner): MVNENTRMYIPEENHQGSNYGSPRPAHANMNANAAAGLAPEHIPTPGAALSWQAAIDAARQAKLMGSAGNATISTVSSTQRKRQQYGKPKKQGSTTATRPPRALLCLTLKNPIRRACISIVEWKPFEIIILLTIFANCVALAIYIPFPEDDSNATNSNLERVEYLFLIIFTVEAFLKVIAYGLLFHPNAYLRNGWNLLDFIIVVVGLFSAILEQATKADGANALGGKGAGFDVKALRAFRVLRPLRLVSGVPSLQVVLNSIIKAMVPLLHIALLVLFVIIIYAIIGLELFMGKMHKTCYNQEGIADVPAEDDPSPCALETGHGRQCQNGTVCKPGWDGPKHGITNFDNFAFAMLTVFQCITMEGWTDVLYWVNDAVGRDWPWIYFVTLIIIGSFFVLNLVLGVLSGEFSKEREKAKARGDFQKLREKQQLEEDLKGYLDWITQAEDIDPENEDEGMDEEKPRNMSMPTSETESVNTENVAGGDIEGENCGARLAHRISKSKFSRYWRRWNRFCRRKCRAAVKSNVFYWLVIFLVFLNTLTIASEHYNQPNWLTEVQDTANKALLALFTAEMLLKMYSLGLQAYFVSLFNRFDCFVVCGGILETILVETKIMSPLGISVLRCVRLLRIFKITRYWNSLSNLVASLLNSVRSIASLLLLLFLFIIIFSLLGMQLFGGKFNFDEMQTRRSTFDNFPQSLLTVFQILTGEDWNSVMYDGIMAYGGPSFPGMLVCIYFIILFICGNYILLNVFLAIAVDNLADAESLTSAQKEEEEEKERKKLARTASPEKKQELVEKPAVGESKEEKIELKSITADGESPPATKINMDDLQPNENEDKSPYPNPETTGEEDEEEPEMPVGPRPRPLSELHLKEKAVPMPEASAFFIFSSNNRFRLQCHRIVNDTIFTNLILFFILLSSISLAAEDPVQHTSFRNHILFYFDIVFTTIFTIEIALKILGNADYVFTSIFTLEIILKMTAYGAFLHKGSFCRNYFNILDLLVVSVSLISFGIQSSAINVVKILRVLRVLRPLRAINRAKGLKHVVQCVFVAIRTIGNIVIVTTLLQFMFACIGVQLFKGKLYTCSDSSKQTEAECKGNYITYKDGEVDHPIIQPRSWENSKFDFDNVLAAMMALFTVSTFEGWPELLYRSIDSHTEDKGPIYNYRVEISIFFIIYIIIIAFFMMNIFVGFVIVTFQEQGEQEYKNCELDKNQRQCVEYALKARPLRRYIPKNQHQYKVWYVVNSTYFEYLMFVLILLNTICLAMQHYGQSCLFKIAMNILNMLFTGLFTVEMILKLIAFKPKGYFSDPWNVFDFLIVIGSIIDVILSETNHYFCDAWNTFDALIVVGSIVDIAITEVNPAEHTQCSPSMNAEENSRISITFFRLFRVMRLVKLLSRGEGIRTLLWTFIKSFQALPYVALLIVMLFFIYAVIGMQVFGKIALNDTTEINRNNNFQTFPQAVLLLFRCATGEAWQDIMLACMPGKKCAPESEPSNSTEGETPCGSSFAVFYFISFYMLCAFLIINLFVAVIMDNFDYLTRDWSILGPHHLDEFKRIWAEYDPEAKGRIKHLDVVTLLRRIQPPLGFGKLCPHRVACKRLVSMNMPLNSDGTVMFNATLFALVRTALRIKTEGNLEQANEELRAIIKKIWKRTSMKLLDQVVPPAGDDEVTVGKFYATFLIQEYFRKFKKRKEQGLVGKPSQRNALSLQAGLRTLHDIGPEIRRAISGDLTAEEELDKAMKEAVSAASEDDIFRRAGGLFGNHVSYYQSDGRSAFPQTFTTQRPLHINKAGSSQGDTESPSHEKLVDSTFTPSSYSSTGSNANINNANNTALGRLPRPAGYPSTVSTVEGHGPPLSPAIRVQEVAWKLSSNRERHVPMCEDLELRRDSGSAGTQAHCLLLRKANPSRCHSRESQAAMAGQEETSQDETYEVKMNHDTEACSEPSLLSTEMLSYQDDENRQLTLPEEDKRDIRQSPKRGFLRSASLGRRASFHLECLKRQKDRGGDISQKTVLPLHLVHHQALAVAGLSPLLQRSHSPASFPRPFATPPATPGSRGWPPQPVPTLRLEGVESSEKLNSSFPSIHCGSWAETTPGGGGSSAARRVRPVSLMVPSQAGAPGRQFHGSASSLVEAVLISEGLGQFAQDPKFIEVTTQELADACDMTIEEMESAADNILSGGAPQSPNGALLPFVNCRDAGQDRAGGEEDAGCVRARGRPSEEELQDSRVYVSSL
Put plainly: Ca2+ current measurements in tSA-201 cells, serum removal. It counts as cell-based.
Text: as §1, §2

The subject of a further test is iPSC-CM beating clusters. As to the kind of experiment: Ca2+ handling in iPSC-CM beating clusters treated with Akt-inhibitor. As to conditions: iPSC-CM beating clusters co-treated with Akt-inhibitor. It counts as cell-based, human.
Text: as §3

In test [2] the test system is Cavα1.2. Put plainly: Western blot of Cavα1.2 protein degradation in peptide-treated cells, serum removal. In kind it is cell-based.
Text: as §1, §2

The subject of test [3] is Cavα1.2. As to the kind of experiment: Western blot of Cavα1.2 protein levels in HEK293 cells transfected with peptides, serum removal. In kind it is cell-based. The settings on record: specific mutations within either the MP or Cavα1.2.
Text: as §1
Based on the evidence shown in example 1, we next investigated whether mimetic peptides (MPs) might recapitulate the mechanism by which LTCCs are protected from protein degradation by binding to the TID domain. […]

Where no end group is shown, it is not given here.

With DQPPSRRDERA [scramble control peptide], the “co-localization with LTCCs” value in the test with LTCCs is on record as “none of these effects were observed”. Further, in the test on pdk1 knockout mice, the “cardiac (left ventricular) function, echocardiography” value is given as “progressive impairment of left ventricular function”. Further, the “downregulation of Cavα1.2 protein levels” value in the test with Cavα1.2 [1] is “no rescuing effects”. For the same sequence, in the test with LTCC, the “Ca2+ current” value was “none of these effects were observed”. Moreover, the “slowing (delay) of Ca2+ transient development” value in the test with iPSC-CM beating clusters is “no effects”. Further, the “protection of Cavα1.2 from protein degradation” value with Cavα1.2 [2] is given as “none of these effects were observed”.

With DQRPDREAPRS [MP], the “cardiac (left ventricular) function, echocardiography” value with pdk1 knockout mice is recorded as “significant attenuation of the impairment of cardiac function”. The LTCC protein levels result in the test on pdk1 knockout mice (left ventricular homogenates of PDK1 knockout mice) is listed as “restoration of LTCC protein levels”. The “downregulation of Cavα1.2 protein levels” value in the test with Cavα1.2 [1] is listed as “prevented”. The “protective effect on Cavα1.2 when mutations abolish the predicted MP-TID interaction” value in the test with Cavα1.2 [3] is given as “completely lost”. In addition, the “slowing (delay) of Ca2+ transient development” value in the test on iPSC-CM beating clusters is given as “sufficient for reducing this delay”.

The values are drawn from patent US9873725B2, “Mimetic peptides which modulate L-type calcium channels” (CONSIGLIO NAZIONALE DELLE RICERCHE, priority 2014, dated 2018).
